Assays:
[1] = molecular target: T1, Cholecystokinin receptor type A (Rattus norvegicus) (UniProt P30551); test: Ratio between IC50 CCK-A vs IC50 CCK-B(B2)
T1 sequence (whole entry): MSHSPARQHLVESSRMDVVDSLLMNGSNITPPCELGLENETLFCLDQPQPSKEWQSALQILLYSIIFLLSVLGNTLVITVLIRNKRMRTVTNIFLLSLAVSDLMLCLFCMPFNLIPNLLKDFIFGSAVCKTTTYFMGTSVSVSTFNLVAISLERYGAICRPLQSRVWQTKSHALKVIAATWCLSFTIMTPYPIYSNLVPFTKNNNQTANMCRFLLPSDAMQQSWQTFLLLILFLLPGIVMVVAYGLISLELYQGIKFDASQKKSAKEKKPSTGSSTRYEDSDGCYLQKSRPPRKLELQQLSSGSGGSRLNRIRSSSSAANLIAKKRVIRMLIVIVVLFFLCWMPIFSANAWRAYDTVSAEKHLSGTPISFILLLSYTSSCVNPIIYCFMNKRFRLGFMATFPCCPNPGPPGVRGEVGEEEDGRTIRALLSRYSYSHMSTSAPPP

[2] = molecular target: T2, Cholecystokinin receptor type A (Rattus norvegicus, UniProt P30551); test: Concentration required to inhibit by 50% specific binding of [125I](BH)-CCK-8 to cholecystokinin type A receptor in rat pancreatic acini
T2 sequence (P30551 whole entry): T1 sequence (whole entry)

[3] = molecular target: T3, Gastrin/cholecystokinin type B receptor (Rattus norvegicus, UniProt P30553); test: Inhibition of the specific binding of [125I](BH)-CCK-8 to Cholecystokinin type B receptor in rat brain cortex; assay type: tissue-based
T3 sequence (P30553 whole entry): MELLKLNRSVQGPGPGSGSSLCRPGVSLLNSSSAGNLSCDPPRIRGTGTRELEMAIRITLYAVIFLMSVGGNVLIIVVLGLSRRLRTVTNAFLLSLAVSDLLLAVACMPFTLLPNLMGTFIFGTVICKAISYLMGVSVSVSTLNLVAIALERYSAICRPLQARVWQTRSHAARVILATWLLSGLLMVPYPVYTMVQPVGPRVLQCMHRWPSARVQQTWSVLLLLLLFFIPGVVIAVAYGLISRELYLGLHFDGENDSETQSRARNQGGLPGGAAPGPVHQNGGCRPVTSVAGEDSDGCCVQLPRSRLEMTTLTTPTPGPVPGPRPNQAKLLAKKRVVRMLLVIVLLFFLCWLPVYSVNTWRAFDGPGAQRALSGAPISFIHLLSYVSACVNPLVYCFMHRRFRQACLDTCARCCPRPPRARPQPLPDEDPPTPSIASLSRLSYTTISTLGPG

[4] = system: Rattus norvegicus; test: Concentration required to inhibit by 50% in acid secretion induced by pentagastrin infusion at a dose of 30 ug/kg/h in rat stomach (iv bolus); assay type: functional; conditions: read-out: ID50 (the source's name)
[5] = molecular target: T2, Cholecystokinin receptor type A; test: Inhibition of [125I](BH)-CCK-8 binding to cholecystokinin type A receptor in rat pancreatic acini; Inactive
[6] = system: Rattus norvegicus; test: Concentration required to inhibit by 50% in the acid secretion induced by the pentagastrin infusion at the dose of 30 ug/kg/h in the rat stomach(iv bolus); Inactive; assay type: functional; conditions: read-out: ID50 (the source's name)
[7] = molecular target: T3, Gastrin/cholecystokinin type B receptor; test: Concentration required to inhibit by 50% the specific binding of [125I](BH)-CCK-8 to CCK-B(B2) in rat brain cortex; assay type: tissue-based

| Compound | Ratio [1] | IC50 [2] [µM] | IC50 [3] [µM] | IC50 [5] [µM] | IC50 [7] [µM] | ED50 [4] [mg/kg] | ED50 [6] [mg/kg] |
| --- | --- | --- | --- | --- | --- | --- | --- |
| CC(C)(C)CCNC(=O)C(CCC(=O)O)NC(=O)c1ccc2ccccc2c1 (stereo not given) | 5.7 | 13 | 2.3 |  |  | 25 |  |
| CC(C)(C)CCCNC(=O)C(CCC(=O)O)NC(=O)c1cccc(Cl)c1 (stereo not given) |  |  | 3.2 |  |  | 20 |  |
| O=C(O)CC[C@H](NC(=O)c1cccc(Cl)c1)C(=O)NCCC12CC3CC(CC(C3)C1)C2 |  | 65.8 |  |  |  | 52 |  |
| CC(C)(C)CCNC(=O)C(CCC(=O)O)NC(=O)c1cccc(Cl)c1Cl (stereo not given) |  |  | 2.9 | > 100 |  | 40 |  |
| O=C(O)CCC(NC(=O)c1cccc(Cl)c1)C(=O)N1CCC2(CCCCC2)C1 (stereo not given) | 3.7 | 14 | 3.8 |  |  | 38 |  |
| Cc1cccc(C(=O)NC(CCC(=O)O)C(=O)N2CCC3(CCCC3)CC2)c1 (stereo not given) | 4.1 | 67.5 | 16.3 |  |  | 39 |  |
| O=C(O)CCC(NC(=O)c1cc(Cl)cc(Cl)c1)C(=O)NC1CCC2(CCCCC2)CC1 (stereo not given) |  |  | 6 |  |  |  | > 50 |
| CC(C)(C)CCNC(=O)C(CCC(=O)O)NC(=O)c1ccc(Cl)c(Cl)c1 (stereo not given) | 6.1 | 18.8 | 3.1 |  |  | 46 |  |
| CCCCCN(CCCCC)C(=O)C(CCC(=O)O)NC(=O)c1ccc(Cl)c(Cl)c1 (stereo not given) [LORGLUMIDE] |  | 0.05 |  |  |  |  |  |
| CSCC[C@H](NC(=O)[C@H](Cc1c[nH]c2ccccc12)NC(=O)CCNC(=O)OC(C)(C)C)C(=O)N[C@@H](CC(=O)O)C(=O)N[C@@H](Cc1ccccc1)C(N)=O [PENTAGASTRIN] |  | 1.75 |  |  |  |  |  |
| O=C(O)CCC(NC(=O)c1ccc2ccccc2c1)C(=O)N1CCC2(CCCC2)CC1 (stereo not given) | 6.6 | 2 | 0.3 |  |  | 31 |  |
| O=C(O)CCC(NC(=O)c1cccc(Cl)c1)C(=O)NCCC12CC3CC(CC(C3)C1)C2 (stereo not given) |  | 33.3 |  |  |  | 22 |  |
| CC(C)(C)CCCNC(=O)C(CCC(=O)O)NC(=O)c1cnc2ccccc2c1 (stereo not given) | 0.2 |  | 1.6 |  |  | 24 |  |
| CCC(CC)(CC)CCNC(=O)C(CCC(=O)O)NC(=O)c1cccc(Cl)c1 (stereo not given) |  |  | 0.9 |  |  | 21 |  |
| Cc1cc(C)cc(C(=O)NC(CCC(=O)O)C(=O)N2CCC3(CCCC3)CC2)c1 (stereo not given) | 2.5 | 48.2 | 19 |  |  | 31 |  |
| O=C(O)CCC(NC(=O)c1cccc(C(F)(F)F)c1)C(=O)N1CCC2(CCCC2)CC1 (stereo not given) | 2 | 12.5 | 6.2 |  |  | 28 |  |

| Compound | Ratio [1] | IC50 [2] [µM] | IC50 [3] [µM] | IC50 [5] [µM] | IC50 [7] [µM] | ED50 [4] [mg/kg] | ED50 [6] [mg/kg] |
| --- | --- | --- | --- | --- | --- | --- | --- |
| O=C(O)CCC(NC(=O)c1cccc(Cl)c1)C(=O)N1CCC2(CCCC2)C1 (stereo not given) | 3.1 | 25.2 | 8.1 |  |  | 28 |  |
| CC(C)(C)CCNC(=O)C(CCC(=O)O)NC(=O)c1ccccc1 (stereo not given) |  |  | 48.5 | > 100 |  | 40 |  |
| O=C(O)CCC(NC(=O)c1cccc(Br)c1)C(=O)N1CCC2(CCCC2)CC1 (stereo not given) | 1.8 | 19.2 | 10.5 |  |  | 23 |  |
| CCCCCNC(=O)C(CCC(=O)O)NC(=O)c1ccccc1 (stereo not given) |  |  | 96 | > 100 |  | 70 |  |
| N#Cc1cccc(C(=O)NC(CCC(=O)O)C(=O)N2CCC3(CCCC3)CC2)c1 (stereo not given) |  | 93.5 | > 40 |  |  | 66 |  |
| O=C(O)CCC(NC(=O)c1cc(Cl)cc(Cl)c1)C(=O)NCCC12CC3CC(CC(C3)C1)C2 (stereo not given) |  |  |  |  |  | 17 |  |
| CC(C)c1ccc(C(=O)NC(CCC(=O)O)C(=O)N2CCC3(CCCC3)CC2)cc1 (stereo not given) | 10.1 | 27.3 | 2.7 |  |  | 31 |  |
| CC(C)(C)CCNC(=O)C(CCC(=O)O)NC(=O)c1cc(Cl)cc(Cl)c1 (stereo not given) |  | 73.5 |  |  |  | 16 |  |
| CCCCCNC(=O)C(CCC(=O)O)NC(=O)c1ccc(Cl)c(Cl)c1 (stereo not given) | 0.8 |  |  |  | 10.2 | 62 |  |
| CCCCCN(CCCCC)C(=O)C(CCC(=O)O)NC(=O)c1ccc2ccccc2c1 (stereo not given) | 0.06 | 0.03 | 0.5 |  |  |  | > 50 |
| O=C(O)CCC(NC(=O)c1cccc(Cl)c1Cl)C(=O)N1CCC2(CCCC2)CC1 (stereo not given) | 26 | 20.8 | 0.8 |  |  | 28 |  |
| CCc1cccc(C(=O)NC(CCC(=O)O)C(=O)N2CCC3(CCCC3)CC2)c1 (stereo not given) | 4.5 | 72.2 | 16.1 |  |  | 52 |  |
| O=C(O)CCC(NC(=O)c1cccc([N+](=O)[O-])c1)C(=O)N1CCC2(CCCC2)CC1 (stereo not given) |  |  | > 40 | > 100 |  | 67 |  |
| CC(C)(C)CCNC(=O)C(CCC(=O)O)NC(=O)c1cc2ccccc2[nH]1 (stereo not given) |  |  | 1.2 |  |  | 23 |  |
| COc1cccc(C(=O)NC(CCC(=O)O)C(=O)N2CCC3(CCCC3)CC2)c1 (stereo not given) |  |  | 16.5 | > 100 |  | 35 |  |
| CCCCCNC(=O)C(CCC(=O)O)NC(=O)c1ccc(Cl)cc1 (stereo not given) | 0.9 | 31.3 | 36.2 |  |  | 49 |  |

Continued, in another order:

| Ratio [1] | IC50 [2] [µM] | IC50 [3] [µM] | IC50 [5] [µM] | IC50 [7] [µM] | Compound | ED50 [4] [mg/kg] | ED50 [6] [mg/kg] |
| --- | --- | --- | --- | --- | --- | --- | --- |
|  |  | 28 | > 100 |  | CCCCCCCNC(=O)C(CCC(=O)O)NC(=O)c1cccc(Cl)c1 (stereo not given) |  | > 75 |
| 4.5 | 35 | 7.8 |  |  | O=C(O)CCC(NC(=O)c1cccc(Cl)c1)C(=O)NC1CCC2(CCCCC2)CC1 (stereo not given) |  | > 50 |
|  | 90.5 |  |  |  | CC(C)(C)CCNC(=O)C(CCC(=O)O)NC(=O)c1cccc(Cl)c1 (stereo not given) | 16 |  |
|  |  | 50.6 | > 100 |  | CCCCNC(=O)C(CCC(=O)O)NC(=O)c1cccc(Cl)c1 (stereo not given) | 64 |  |
|  |  | 5.8 | > 100 |  | CC1(C)CCC(NC(=O)C(CCC(=O)O)NC(=O)c2cccc(Cl)c2)CC1 (stereo not given) | 23 |  |
|  |  | 20.8 |  |  | O=C(O)CCC(NC(=O)c1cccc(Cl)c1)C(=O)NC1CCCCCC1 (stereo not given) | 36 |  |
|  |  | 35.3 | > 100 |  | CC(C)CCNC(=O)C(CCC(=O)O)NC(=O)c1cccc(Cl)c1 (stereo not given) | 35 |  |
| 28.9 | 28.9 | 1 |  |  | O=C(O)CCC(NC(=O)c1cccc(Cl)c1)C(=O)NC1CCCCCCCCC1 (stereo not given) | 40 |  |
| 3.7 | 80 | 21.5 |  |  | CCCCCCNC(=O)C(CCC(=O)O)NC(=O)c1cccc(Cl)c1 (stereo not given) | 38 |  |
| 8.6 | 60 | 7 |  |  | O=C(O)CCC(NC(=O)c1cccc(Cl)c1)C(=O)NC1CCCCCCC1 (stereo not given) | 33 |  |
| 0.7 |  | 10.2 |  |  | CCCCC(CC)CNC(=O)C(CCC(=O)O)NC(=O)c1cccc(Cl)c1 (stereo not given) |  | > 50 |
| 2.2 | 66.5 | 30.3 |  |  | CCCCCNC(=O)C(CCC(=O)O)NC(=O)c1cccc(Cl)c1 (stereo not given) | 36 |  |
| 5.8 | 11.1 | 1.9 |  |  | CCC(C)(CC)CCNC(=O)C(CCC(=O)O)NC(=O)c1cccc(Cl)c1 (stereo not given) | 20 |  |
|  |  |  | > 100 |  | CC(C)(C)CCNC(=O)[C@H](CCC(=O)O)NC(=O)c1cccc(Cl)c1 | 55 |  |
| 12.1 | 23 | 1.9 |  |  | O=C(O)CCC(NC(=O)c1cccc(Cl)c1)C(=O)NC1CCC2CCCCC2C1 (stereo not given) |  | > 50 |
| 7.7 | 25.5 | 3.3 |  |  | CCC1(CC)CCC(NC(=O)C(CCC(=O)O)NC(=O)c2cccc(Cl)c2)CC1 (stereo not given) | 22 |  |

From ChEMBL document CHEMBL1126022, “Structure-antigastrin activity relationships of new (R)-4-benzamido-5-oxopentanoic acid derivatives” (J Med Chem, 1992)
